Experimental data: patent US20090105301A1, “9A-SUBSTITUTED AZALIDES FOR THE TREATMENT OF MALARIA” (priority 2006, published 2009)
Converted amounts (≈) assume the structure as drawn. Where a name gives a salt, the structure may show the parent alone.

Assays:
Format in all cases: cell-based, Plasmodium falciparum
P. falciparum TM91C235 = assay: In vitro screening protocol I, [3H]-hypoxanthine incorporation, TM91C235; conditions: In vitro screening protocol I, P. falciparum TM91C235; for IC50: Plasmodium falciparum, read-out: IC50 TM91C235
Description: (§1) Agents Chemother. 27 (4) (1985) 525-530). The system was limited to the assessment of the intrinsic activity against the erythrocytic asexual life cycle (blood schizontocides). Two Plasmodium falciparum clones from CDC/Indochina III (W-2) and CDC/Sierra Leone I (D-6) (Oduola A M, Weatherly N F, Bowdre J H, Desjardins R E. Plasmodium falciparum: cloning by single-erythrocyte micromanipulation and heterogeneity in vitro. Exp Parasitol. 66 (1) (1988) 86-95) were used for all assays. TM91C235, a multiple drug resistant isolate from Thailand (Antimicrob. Agents Chemother. 46 (8) (2002) 2627 and Antimicrob. Agents Chemother. 43 (3) (1999) 598-602), was used for the prescreening assay. W-2 is resistant to chloroquine, quinine, and pyrimethamine and susceptible to mefloquine. D-6 tends to be more resistant to mefloquine and susceptible to chloroquine, quinine, and pyrimethamine. All documents cited in this paragraph are incorporated by reference in their entirety.
(§2) All parasites were maintained in continuous long term cultures in RPMI-1640 medium supplemented with 6% washed human A positive (A+)(erythrocytes, 25 mM Hepes, […], and 10% heat inactivated A+ human plasma or ALBUMAX® (lipid-rich bovine serum albumin; Invitrogen, Carlsbad, Calif.). All cultures and assays were conducted at 37° C. under an atmosphere of 5% CO2 and 5% O2, with a balance of N2.
(§3) The prescreening assay uses TM91C235 diluted at a 0.4% parasitemia in a 1% hematocrit in folic acid free and p-aminobenzoic acid free media RPMI-1640 and ALBUMAX®. […] The compound is further diluted in folate free (FF) culture medium with ALBUMAX® for the first initial starting concentration. The rest of the stock drug solution was kept at −70° C. The isolate was preexposed, in duplicate, at three concentrations (25,000 ng/ml, 2,500 ng/ml, and […]) of the test compound for 48 hr in a 96-well microtiter plate (MTP) using the BIOMEK® 2000 automated laboratory workstation. Each MTP contains chloroquine as control to assess the relative activity of the compound and to monitor the response of TM91C235.
(§4) After the preincubation, [^3H]-hypoxanthine was added to each well of the MTP. (The assay relies on the incorporation of radiolabeled hypoxanthine by the parasites, which indicates reproduction, and inhibition of isotope incorporation was attributed to activity of known or candidate antimalarial drugs). After 72 hours of total incubation time, the MTP were frozen to lyse the erythrocytes and parasites. The parasite DNA was recovered by harvesting the lysate onto glass-fiber filter plates using a Packard FilterMate™ Cell Harvester. The radioactivity was counted on a Packard TopCount™ microplate scintillation counter.
(§5) The serial dilution assay was conducted using the same assay conditions and stock solution of the compound used for the preliminary screen, described above. Both the D-6 and the W-2 clones were used. The compounds were diluted two-fold over 11 different concentration ranges with a starting concentration that was based on the preliminary screen. For each drug, the concentration response profile was determined and 50% inhibitory concentrations (IC50) were determined by using a non-linear, logistic dose response analysis program. […] For each assay, the IC50 for each clone was determined against the known antimalarials chloroquine and mefloquine. These control values established the compound's relative parasite susceptibility profile compared to known antimalarials. […]

[1] = test system: P. falciparum D6 (CDC/Sierra Leone I, D-6); assay: In vitro screening protocol I, [3H]-hypoxanthine incorporation, D6; conditions: In vitro screening protocol I, P. falciparum D6; for IC50: Plasmodium falciparum, read-out: IC50 D6
Description: as §1, §2, §3, §4, §5

[2] = test system: P. falciparum W2 (CDC/Indochina III, W-2); assay: In vitro screening protocol I, [3H]-hypoxanthine incorporation, W2; conditions: In vitro screening protocol I, P. falciparum W2; for IC50: Plasmodium falciparum, read-out: IC50 W2
Description: as §1, §2, §3, §4, §5

Compound | IC50 (P. falciparum TM91C235) | IC50 [1] | IC50 [2] | IC50 TM91C235 (P. falciparum TM91C235) | IC50 D6 [1] | IC50 W2 [2]
CC[C@H]1OC(=O)[C@H](C)[C@@H](O)[C@H](C)[C@@H](O[C@@H]2O[C@H](C)C[C@H](N(C)C)[C@H]2O)[C@](C)(O)C[C@@H](C)CN(CCCNCc2ccc3ccccc3n2)[C@H](C)[C@@H](O)[C@]1(C)O [Example 2, 9a-{3-[(Quinolin-2-yl-methyl)amino]propyl}-3-O-decladinosyl-9-deoxo-9-dihydro-9a-aza-9a-homoerythromycin A] | 0.1 to 0.2 µg/mL (≈ 0.129 to 0.258 µM) | 0.2 to 1 µg/mL (≈ 0.258 to 1.29 µM) | 0.1 to 0.2 µg/mL (≈ 0.129 to 0.258 µM) | – | – | –
CC[C@H]1OC(=O)[C@H](C)[C@@H](O[C@H]2C[C@@](C)(OC)[C@@H](O)[C@H](C)O2)[C@H](C)[C@@H](O[C@@H]2O[C@H](C)C[C@H](N(C)C)[C@H]2O)[C@](C)(O)C[C@@H](C)CN(CCCNCc2ccccn2)[C@H](C)[C@@H](O)[C@]1(C)O [Example 18, 9a-{3-[(Pyridin-2-yl-methyl)amino]propyl}-9-deoxo-9-dihydro-9a-aza-9a-homoerythromycin A] | 1 to 2.5 µg/mL (≈ 1.13 to 2.83 µM) | 1 to 2.5 µg/mL (≈ 1.13 to 2.83 µM) | 0.2 to 1 µg/mL (≈ 0.226 to 1.13 µM) | – | – | –
CC[C@H]1OC(=O)[C@H](C)[C@@H](O[C@H]2C[C@@](C)(OC)[C@@H](O)[C@H](C)O2)[C@H](C)[C@@H](O[C@@H]2O[C@H](C)C[C@H](N(C)C)[C@H]2O)[C@](C)(O)C[C@@H](C)CN(CCCNC(=O)CCc2ccccc2)[C@H](C)[C@@H](O)[C@]1(C)O [Example 27, 9a-{3-[(3-Phenylpropanoyl)amino]propyl}-9a-aza-9-deoxo-9-dihydro-9a-homoerythromycin A Formiate Salt] | < 0.1 µg/mL | 0.2 to 1 µg/mL | 0.2 to 1 µg/mL | – | – | –
CC[C@H]1OC(=O)[C@H](C)[C@@H](O)[C@H](C)[C@@H](O[C@@H]2O[C@H](C)C[C@H](N(C)C)[C@H]2O)[C@](C)(O)C[C@@H](C)CN(CCCNC(=O)[C@H](C)c2ccc3cc(OC)ccc3c2)[C@H](C)[C@@H](O)[C@]1(C)O [Example 37, 9a-[3-({(2S)-2-[6-(methyloxy)-naphthalen-2-yl]propanoyl}amino)propyl]-3-O-decladinosyl-9a-aza-9-deoxo-9-dihydro-9a-homoerythromycin A Formiate Salt] | 0.2 to 1 µg/mL | 0.2 to 1 µg/mL | 0.2 to 1 µg/mL | – | – | –
CC[C@H]1OC(=O)[C@H](C)[C@@H](O[C@H]2C[C@@](C)(OC)[C@@H](O)[C@H](C)O2)[C@H](C)[C@@H](O[C@@H]2O[C@H](C)C[C@H](N(C)C)[C@H]2O)[C@](C)(O)C[C@@H](C)CN(CCCN(C)Cc2cccc3ccccc23)[C@H](C)[C@@H](O)[C@]1(C)O [Example 17, 9a-{3-[Methyl-(naphtalen-1-yl-methyl)amino]propyl}-9-deoxo-9-dihydro-9a-aza-9a-homoerythromycin A] | < 0.1 µg/mL | 0.1 to 0.2 µg/mL (≈ 0.106 to 0.211 µM) | < 0.1 µg/mL | – | – | –
CC[C@H]1OC(=O)[C@H](C)[C@@H](O[C@H]2C[C@@](C)(OC)[C@@H](O)[C@H](C)O2)[C@H](C)[C@@H](O[C@@H]2O[C@H](C)C[C@H](N(C)C)[C@H]2O)[C@](C)(O)C[C@@H](C)CN(CCC(=O)NCc2ccccc2)[C@H](C)[C@@H](O)[C@]1(C)O [Example 38] | 0.2 to 1 µg/mL (≈ 0.223 to 1.12 µM) | 0.2 to 1 µg/mL (≈ 0.223 to 1.12 µM) | 0.2 to 1 µg/mL (≈ 0.223 to 1.12 µM) | – | – | –
CCC1OC(=O)C(C)C(O)C(C)C(O)C(C)(O)CC(C)CN(CCCNCc2cnc3ccccc3c2)C(C)C(O)C1(C)O (stereo not drawn) [Example 6, 9a-{3-[(Quinolin-3-yl-methyl)amino]propyl}-3-O-decladinosyl-5-O-dedesosaminyl-9-deoxo-9-dihydro-9a-aza-9a-homoerythromycin A] | – | – | – | D (1000 < X ≦ 2500) | F (2800 < X ≦ 3500) | C (200 < X ≦ 1000)
CC[C@H]1OC(=O)[C@H](C)[C@@H](O[C@H]2C[C@@](C)(OC)[C@@H](O)[C@H](C)O2)[C@H](C)[C@@H](O[C@@H]2O[C@H](C)C[C@H](N(C)C)[C@H]2O)[C@](C)(O)C[C@@H](C)CN(CCCNC(=O)CCCc2ccccc2)[C@H](C)[C@@H](O)[C@]1(C)O [Example 28, 9a-{3-[(4-Phenylbutanoyl)amino]propyl}-9a-aza-9-deoxo-9-dihydro-9a-homoerythromycin A Formiate Salt] | < 0.1 µg/mL | 0.2 to 1 µg/mL | 0.2 to 1 µg/mL | – | – | –
CC[C@H]1OC(=O)[C@H](C)[C@@H](O[C@H]2C[C@@](C)(OC)[C@@H](O)[C@H](C)O2)[C@H](C)[C@@H](O[C@@H]2O[C@H](C)C[C@H](N(C)C)[C@H]2O)[C@](C)(O)C[C@@H](C)CN(CCCNc2ccnc3ccccc23)[C@H](C)[C@@H](O)[C@]1(C)O [Example 22, 9a-[3-(Quinolin-4-yl-amino)propyl]-9-deoxo-9-dihydro-9a-aza-9a-homoerythromycin A] | < 0.1 µg/mL | < 0.1 µg/mL | < 0.1 µg/mL | – | – | –
CC[C@H]1OC(=O)[C@H](C)[C@@H](O[C@H]2C[C@@](C)(OC)[C@@H](O)[C@H](C)O2)[C@H](C)[C@@H](O[C@@H]2O[C@H](C)C[C@H](N(C)C)[C@H]2O)[C@](C)(O)C[C@@H](C)CN(CCCNCCc2ccccc2)[C@H](C)[C@@H](O)[C@]1(C)O [Example 20, 9a-{3-[(2-Phenylethyl)amino]propyl}-9-deoxo-9-dihydro-9a-aza-9a-homoerythromycin A] | < 0.1 µg/mL | 0.2 to 1 µg/mL (≈ 0.223 to 1.12 µM) | < 0.1 µg/mL | – | – | –
CC[C@H]1OC(=O)[C@H](C)[C@@H](O[C@H]2C[C@@](C)(OC)[C@@H](O)[C@H](C)O2)[C@H](C)[C@@H](O[C@@H]2O[C@H](C)C[C@H](N(C)C)[C@H]2O)[C@](C)(O)C[C@@H](C)CN(CCNCc2cccc3ccccc23)[C@H](C)[C@@H](O)[C@]1(C)O [Example 16, 9a-{2-[(Naphtalen-1-yl-methyl)amino]ethyl}-9-deoxo-9-dihydro-9a-aza-9a-homoerythromycin A] | – | – | – | A (X ≦ 100) | B (100 < X ≦ 200) | A (X ≦ 100)
CC[C@H]1OC(=O)[C@H](C)[C@@H](O[C@H]2C[C@@](C)(OC)[C@@H](O)[C@H](C)O2)[C@H](C)[C@@H](O[C@@H]2O[C@H](C)C[C@H](N(C)C)[C@H]2O)[C@](C)(O)C[C@@H](C)CN(CCC(=O)NCc2ccc3ccccc3c2)[C@H](C)[C@@H](O)[C@]1(C)O [Example 43] | < 0.1 µg/mL | 0.1 to 0.2 µg/mL (≈ 0.106 to 0.211 µM) | < 0.1 µg/mL | – | – | –
CC[C@H]1OC(=O)[C@H](C)[C@@H](O[C@H]2C[C@@](C)(OC)[C@@H](O)[C@H](C)O2)[C@H](C)[C@@H](O[C@@H]2O[C@H](C)C[C@H](N(C)C)[C@H]2O)[C@](C)(O)C[C@@H](C)CN(CCCNC(=O)CCCCc2ccccc2)[C@H](C)[C@@H](O)[C@]1(C)O [Example 31, 9a-{3-[(5-Phenylpentanoyl)amino]propyl}-9a-aza-9-deoxo-9-dihydro-9a-homoerythromycin A Formiate Salt] | < 0.1 µg/mL | 0.2 to 1 µg/mL | 0.1 to 0.2 µg/mL | – | – | –
CC[C@H]1OC(=O)[C@H](C)[C@@H](O[C@H]2C[C@@](C)(OC)[C@@H](O)[C@H](C)O2)[C@H](C)[C@@H](O[C@@H]2O[C@H](C)C[C@H](N(C)C)[C@H]2O)[C@](C)(O)C[C@@H](C)CN(CCCNCc2ccnc3ccccc23)[C@H](C)[C@@H](O)[C@]1(C)O [Example 14, 9a-{3-[(Quinolin-4-yl-methyl)amino]propyl}-9-deoxo-9-dihydro-9a-aza-9a-homoerythromycin A] | – | – | – | B (100 < X ≦ 200) | B (100 < X ≦ 200) | B (100 < X ≦ 200)
CC[C@H]1OC(=O)[C@H](C)[C@@H](O)[C@H](C)[C@@H](O[C@@H]2O[C@H](C)C[C@H](N(C)C)[C@H]2O)[C@](C)(O)C[C@@H](C)CN(CCCNc2ccnc3ccccc23)[C@H](C)[C@@H](O)[C@]1(C)O [Example 24, 9a-[3-(Quinolin-4-yl-amino)propyl]-3-O-decladinosyl-9-deoxo-9-dihydro-9a-aza-9a-homoerythromycin A] | 0.2 to 1 µg/mL (≈ 0.263 to 1.31 µM) | 0.1 to 0.2 µg/mL (≈ 0.131 to 0.263 µM) | 0.1 to 0.2 µg/mL (≈ 0.131 to 0.263 µM) | – | – | –
